OC[C@@H](O)[C@@H](O[C@H]1O[C@H](CO)[C@@H](O)[C@H](O)[C@H]1O)[C@H](O)[C@@H](O)CO
solubility (mole fraction)
Conditions	298.15 K	303.15 K	308.15 K	313.15 K	318.15 K	323.15 K
in DMF	0.00761	0.00819	0.00922	0.0109	0.0128	0.0153
in ethanol	3.6e-05	4.4e-05	5.2e-05	6.2e-05	7.4e-05	9.4e-05
in isopropanol	1.9e-05	2.3e-05	2.7e-05	3e-05	3.8e-05	5.1e-05
in methanol	0.00029	0.000337	0.000393	0.000453	0.000552	0.000706
in water	0.0616	0.0671	0.0786	0.0972	0.111	0.125

— BigSolDB 2.1
